Measured values as given in paper PMC6791878, “Evaluation of integrin αvβ6 cystine knot PET tracers to detect cancer and idiopathic pulmonary fibrosis” (Nature Communications, 2019).
Where “and” joins values, the source holds several entries; their conditions need not be identical. Equal entries are not always repeated.

Columns and labels:
[1] = target: T1, human integrin αvβ6 (Homo sapiens, UniProt P06756+P18564, DEL708-788); test: Equilibrium binding of yeast-displayed knottins to soluble integrin αvβ6 (two-colour flow cytometry, KD); details: KD, equilibrium binding, knottin expressed on yeast surface vs soluble human integrin αvβ6; ± S.D., three replicates on separate days
T1 construct: purchased R&D Systems
T1 sequence (P06756 31-992 limits assumed, stated change not applied): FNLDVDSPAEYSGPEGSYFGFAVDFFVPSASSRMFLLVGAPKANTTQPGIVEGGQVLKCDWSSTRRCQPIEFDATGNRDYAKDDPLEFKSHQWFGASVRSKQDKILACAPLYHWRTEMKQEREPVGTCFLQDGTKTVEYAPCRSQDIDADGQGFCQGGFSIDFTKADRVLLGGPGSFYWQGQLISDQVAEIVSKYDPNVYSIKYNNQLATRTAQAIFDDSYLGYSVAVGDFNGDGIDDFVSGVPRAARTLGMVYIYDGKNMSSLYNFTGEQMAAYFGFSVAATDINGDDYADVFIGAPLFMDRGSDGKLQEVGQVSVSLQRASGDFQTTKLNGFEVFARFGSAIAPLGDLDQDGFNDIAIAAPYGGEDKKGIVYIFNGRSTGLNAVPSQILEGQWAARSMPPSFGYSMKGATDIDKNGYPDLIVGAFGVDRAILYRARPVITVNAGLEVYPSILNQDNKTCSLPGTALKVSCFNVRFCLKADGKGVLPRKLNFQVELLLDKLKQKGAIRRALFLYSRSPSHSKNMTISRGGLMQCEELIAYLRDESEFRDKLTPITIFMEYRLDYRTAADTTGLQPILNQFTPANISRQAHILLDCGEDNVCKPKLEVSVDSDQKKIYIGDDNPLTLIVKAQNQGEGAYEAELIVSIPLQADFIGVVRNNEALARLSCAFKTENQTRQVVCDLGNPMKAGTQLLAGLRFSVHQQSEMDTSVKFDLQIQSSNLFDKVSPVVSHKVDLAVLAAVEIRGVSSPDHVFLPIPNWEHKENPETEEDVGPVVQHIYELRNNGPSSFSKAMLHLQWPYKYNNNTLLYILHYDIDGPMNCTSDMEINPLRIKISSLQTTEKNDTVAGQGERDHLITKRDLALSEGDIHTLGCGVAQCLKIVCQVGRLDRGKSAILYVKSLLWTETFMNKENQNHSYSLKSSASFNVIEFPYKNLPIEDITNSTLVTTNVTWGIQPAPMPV
T1 sequence (P18564 22-707 limits assumed, stated change not applied): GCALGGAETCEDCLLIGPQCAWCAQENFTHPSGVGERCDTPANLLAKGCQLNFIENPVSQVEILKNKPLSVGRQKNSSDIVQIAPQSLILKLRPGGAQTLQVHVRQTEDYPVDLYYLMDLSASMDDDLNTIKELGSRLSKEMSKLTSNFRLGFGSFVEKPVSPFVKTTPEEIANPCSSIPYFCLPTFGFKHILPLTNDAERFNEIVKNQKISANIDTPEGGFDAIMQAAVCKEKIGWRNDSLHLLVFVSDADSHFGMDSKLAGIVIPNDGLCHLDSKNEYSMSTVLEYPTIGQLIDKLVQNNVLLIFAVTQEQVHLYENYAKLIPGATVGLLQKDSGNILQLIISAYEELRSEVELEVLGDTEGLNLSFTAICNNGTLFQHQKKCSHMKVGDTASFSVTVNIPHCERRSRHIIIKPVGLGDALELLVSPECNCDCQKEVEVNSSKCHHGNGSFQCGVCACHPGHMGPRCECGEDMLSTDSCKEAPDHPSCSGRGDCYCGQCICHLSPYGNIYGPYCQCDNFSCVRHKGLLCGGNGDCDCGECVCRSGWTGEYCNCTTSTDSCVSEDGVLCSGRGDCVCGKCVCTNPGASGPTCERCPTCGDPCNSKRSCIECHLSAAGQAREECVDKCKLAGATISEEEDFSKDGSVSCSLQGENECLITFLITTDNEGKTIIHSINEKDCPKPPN

[2] = target: T1, human integrin αvβ6; test: Competition binding (IC50) against yeast surface-displayed R01-MG; details: compete with R01-MG displayed on yeast

CC[C@H](C)[C@@H]1NC(=O)[C@@H](NC(=O)CN)CSSC[C@@H]2NC(=O)[C@H](C)NC(=O)CNC(=O)[C@@H]3CCCN3C(=O)[C@@H]3CSSC[C@@H](C(=O)NCC(N)=O)NC(=O)[C@H](Cc4ccc(O)cc4)NC(=O)CNC(=O)[C@H](CC(N)=O)NC(=O)CNC(=O)[C@H](CCCNC(=N)N)NC(=O)[C@H](CSSC[C@H](NC(=O)[C@H](CCCNC(=N)N)NC(=O)[C@H](Cc4ccccc4)NC(=O)[C@H](CC(C)C)NC(=O)[C@H](CC(C)C)NC(=O)[C@H]([C@@H](C)O)NC(=O)CNC(=O)[C@H](CC(C)C)NC(=O)[C@H](CC(=O)O)NC(=O)[C@H]([C@@H](C)O)NC(=O)[C@H](CCCNC(=N)N)NC(=O)CNC(=O)[C@H](CC(N)=O)NC(=O)[C@H](CC(C)C)NC1=O)C(=O)N[C@@H](CCCNC(=N)N)C(=O)N[C@@H](CCCNC(=N)N)C(=O)N[C@@H](CC(=O)O)C(=O)N[C@@H](CO)C(=O)N[C@@H](CC(=O)O)C(=O)N3)NC(=O)[C@H]([C@@H](C)CC)NC2=O [R01-MG]
Kd [1]: ~1 nM and 1.24 nM | binding affinity for integrin avb6 in competition binding (IC50), in words [2]: subnanomolar
